The record followed here is patent US8653305B2, “Compound having S1P receptor binding potency and use thereof” (Ono Pharmaceutical Co., Ltd., priority 2004, dated 2014).

One experiment addresses T1, Human EDG-1 (Homo sapiens, UniProt P21453).
T1 construct: expressed in transfected cells; host or cells: CHO cells
As to the kind of experiment: Agonistic activity against EDG by monitoring changes in intracellular calcium ion [Ca^2+]i concentration. Conditions: Human EDG-1 overexpressing CHO cells; Fura2-AM; control 100 nM S1P; read-out: EC50 of agonistic activity against EDG-1 (increase ratio of intracellular calcium ion concentration). It counts as cell-based. The procedure:
Evaluation of an Agonistic Activity Against EDG of the Compound of the Present Invention by Monitoring Changes in Intracellular Calcium Ion [Ca^2+]i Concentration
Human EDG-1, EDG-3, EDG-5 or EDG-8 gene overexpressing CHO cells were cultured in Ham's F12 medium (manufactured by GIBCO BRL) containing 10% FBS (fetal bovine serum), penicillin/streptomycin and blasticidin (5 μg/ml). The cultured cells were incubated in a 5 μM Fura2-AM solution (Ham's F12 medium containing 10% of FBS, 20 mM HEPES buffer (pH7.4), and 2.5 mM probenecid) at 37° C. for 60 minutes. After washing once with Hanks solution containing 20 mM HEPES buffer (pH7.4), and 2.5 mM probenecid, the plate was soaked in the same solution until assay. Then, the plate was set on a fluorescent drug screening system (FDSS 6000; Hamamatsu Photonics) and the intracellular calcium ion concentration was measured without stimulation for 30 seconds. A test compound (final concentration: 1 nM to 10 μM, dimethylsulfoxide (DMSO) solution) was added and S1P (final concentration: 100 nM) was added 5 minutes thereafter. Then, the increase in the intracellular calcium ion concentration was measured before and after the addition of S1P at intervals of 3 seconds (excitation wavelength: 340 nm and 380 nm, fluorescence wavelength: 500 nm). […]
For orientation: Calcium flux is commonly read through the fluorescence of an indicator in the cells.

A further experiment addresses T2, EDG-6 (Homo sapiens, UniProt O95977).
T2 construct: expressed in transfected cells; host or cells: Chinese Hamster Ovary (CHO) cells, membrane fraction
T2 sequence (O95977 1-384): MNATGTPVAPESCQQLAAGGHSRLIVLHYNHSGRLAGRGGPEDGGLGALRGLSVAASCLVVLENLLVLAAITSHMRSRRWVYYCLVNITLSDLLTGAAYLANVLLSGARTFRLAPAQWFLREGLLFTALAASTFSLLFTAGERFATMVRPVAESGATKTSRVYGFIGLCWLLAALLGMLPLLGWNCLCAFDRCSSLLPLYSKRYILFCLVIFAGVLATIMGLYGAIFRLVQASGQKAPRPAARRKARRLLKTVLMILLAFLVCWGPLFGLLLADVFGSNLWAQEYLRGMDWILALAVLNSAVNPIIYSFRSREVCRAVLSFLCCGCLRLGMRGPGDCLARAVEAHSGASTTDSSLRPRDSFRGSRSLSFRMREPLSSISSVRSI
As to the kind of experiment: Inhibitory activity on binding of [^3H]-PhS1P to EDG-6. Conditions: cell membrane fraction of EDG-6-overexpressing CHO cell; 10 nmol/L [^3H]-PhS1P solution; read-out: IC50 of inhibition of binding of [^3H]-PhS1P to EDG-6. The procedure: Measurement of Inhibitory Activity of the Compound of the Present Invention on Binding of [^3H]-PhS1P to EDG-6
By using cell membrane fraction of an EDG-6-overexpressing Chinese Hamster Ovary (CHO) cell and 1 mg protein/mL of the membrane fraction, reaction was carried out in a 96-well plate. Into each well, 80 μL of a vehicle (DMSO) solution diluted with 2× binding buffer (100 mmol/L Tris pH 7.5, 200 mM NaCl, 30 mM NaF, 1% BSA) or a ligand solution having a twice higher concentration and 40 μL of 10 nmol/L [^3H]-PhS1P (5,5,6,6,-[…] phytosphingosine 1-phosphate: This was prepared in the following manner. A compound (anti-7-tert-butyl (4S)-4-[(1S,2R)-1-(benzyloxy)-2-hydroxyhexadec-3-yn-1-yl]-2,2-dimethyl-1,3-oxazolizine-3-carboxylate) prepared in accordance with a method reported in a document (Tetrahedron Lett., 38(34), 6027-6030 (1997)) was reacted with benzyl bromide in tetrahydrofuran in the presence of potassium hexamethyldisilylamide to thereby protect the hydroxy group of the compound. Then, it was treated in hydrogen chloride/methanol solution to remove an acetonide group. The compound thus obtained was reacted with N,N-diethyl-1,5-dihydro-2,4,3-benzodioxaphosphepin-3-amine in dichloromethane in the presence of tetrazole and then oxidized with m-chloroperbenzoic acid. Then, it was reacted in the presence of ASCA-2 catalyst (manufactured by NE Chemcat, 4.5% palladium-0.5% platinum catalyst carried on active carbon, see, Fine Chemical, Oct. 1, 2002, pages 5 to 14) in methanol under a tritium atmosphere. The obtained compound was treated with a 4 N hydrogen chloride/1,4-dioxane solution in dichloromethane to thereby obtain the desired compound) were added. Further, 40 μl of the membrane fraction solution was added and reacted at room temperature for 60 minutes. […] Then, 50 μl/well of Micro Scint 20 was added and the plate was covered with Top Seal-P. Then the radioactivity was measured with Top Count (Perkin Elmer).

SMILES strings stand for the structures.

T1 sequence (P21453 whole entry): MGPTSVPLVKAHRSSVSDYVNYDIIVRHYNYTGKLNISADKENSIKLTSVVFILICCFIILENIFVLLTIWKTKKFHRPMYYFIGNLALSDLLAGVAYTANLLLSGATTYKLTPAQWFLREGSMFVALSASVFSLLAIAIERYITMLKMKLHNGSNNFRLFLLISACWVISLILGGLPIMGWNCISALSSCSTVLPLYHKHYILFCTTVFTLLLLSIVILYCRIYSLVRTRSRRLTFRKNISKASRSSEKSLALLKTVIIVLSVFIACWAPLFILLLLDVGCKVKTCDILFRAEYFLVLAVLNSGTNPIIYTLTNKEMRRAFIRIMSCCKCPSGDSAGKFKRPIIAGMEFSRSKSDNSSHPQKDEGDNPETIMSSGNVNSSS

On to `c1ccc(CCCCOc2ccc3cc(CN4CCCCC4)ccc3c2)cc1` [Example 5, 1-{[6-(4-phenylbutoxy)-2-naphthyl]methyl}piperidine], for which the EC50 on Human EDG-1 is 7800 nM.
Turning to `O=C(NS(=O)(=O)c1ccccc1)C1CN(Cc2ccc3cc(OCCCc4ccccc4)ccc3c2)C1` [Example 6], on Human EDG-1, the EC50 was 250 nM.
What is called IC50 is the concentration that inhibits the measured activity by half. `CCNCC1=C(C)c2ccc(OCC(C)Cc3ccc(F)cc3)cc2CC1` (centres unmarked) [Example 27, N-({6-[3-(4-fluorophenyl)-2-methylpropoxy]-1-methyl-3,4-dihydro-2-naphthalenyl}methyl)ethanamine]: on EDG-6, the 50% inhibitory concentration (IC50) was 26 nM.
For `COc1cc(CC(C)C)ccc1COc1ccc2c(c1)CCC(CN1CC(CO)C1)=C2C` [Example 37-1, [1-({6-[(4-isobutyl-2-methoxybenzyl)oxy]-1-methyl-3,4-dihydro-2-naphthalenyl}methyl)-3-azetidinyl]methanol], on EDG-6, the IC50 was found to be 98 nM.
On the same count and under the same terms, the value for `COc1cc(CC(C)C)ccc1COc1ccc2c(c1)CCC(CN1CCN(c3ccccn3)CC1)=C2C` [Example 66-24, 1-({6-[(4-isobutyl-2-methoxybenzyl)oxy]-1-methyl-3,4-dihydro-2-naphthalenyl}methyl)-4-(2-pyridinyl)piperazine] was 81 nM.
